The supplement of paper PMC13380429

Columns and labels:
Conditions in all cases: 72 h
Caco-2 [1] = assay: cell viability relative to DMSO; higher = less toxic
U2OS [2] = assay: as above
Vero E6 [3] = assay: as above
HepG2 [4] = assay: as above
Caco-2 [5] = assay: drug sensitivity score (DSS) for viability; higher = more toxic; extreme values may be limits of the assay
U2OS [6] = assay: as above
Vero E6 [7] = assay: as above
HepG2 [8] = assay: as above
Caco-2 [9] = assay: relative viability EC50 (midpoint between 100% and the lowest measured viability); higher = less toxic
Vero E6 [10] = assay: as above
HepG2 [11] = assay: as above
Calu-3 [12] = assay: cell viability relative to DMSO; higher = less toxic
Calu-3 [13] = assay: drug sensitivity score (DSS) for viability; higher = more toxic; extreme values may be limits of the assay
U2OS [14] = assay: relative viability EC50 (midpoint between 100% and the lowest measured viability); higher = less toxic
Calu-3 [15] = assay: as above

Row | Compound | cell viability (Caco-2 [1]; 1 nM) [%] | cell viability (Caco-2 [1]; 10 nM) [%] | cell viability (Caco-2 [1]; 100 nM) [%] | cell viability (Caco-2 [1]; 1000 nM) [%] | cell viability (Caco-2 [1]; 10000 nM) [%] | cell viability (U2OS [2]; 1 nM) [%] | cell viability (U2OS [2]; 10 nM) [%] | cell viability (U2OS [2]; 100 nM) [%] | cell viability (U2OS [2]; 1000 nM) [%] | cell viability (U2OS [2]; 10000 nM) [%] | cell viability (Vero E6 [3]; 1 nM) [%] | cell viability (Vero E6 [3]; 10 nM) [%] | cell viability (Vero E6 [3]; 100 nM) [%] | cell viability (Vero E6 [3]; 1000 nM) [%] | cell viability (Vero E6 [3]; 10000 nM) [%] | cell viability (HepG2 [4]; 1 nM) [%] | cell viability (HepG2 [4]; 10 nM) [%] | cell viability (HepG2 [4]; 100 nM) [%] | cell viability (HepG2 [4]; 1000 nM) [%] | cell viability (HepG2 [4]; 10000 nM) [%] | drug sensitivity score (Caco-2 [5]) | drug sensitivity score (U2OS [6]) | drug sensitivity score (Vero E6 [7]) | drug sensitivity score (HepG2 [8]) | relative viability EC50 (Caco-2 [9]) [µM] | relative viability EC50 (Vero E6 [10]) [µM] | relative viability EC50 (HepG2 [11]) [µM] | cell viability (Calu-3 [12]; 1 nM) [%] | cell viability (Calu-3 [12]; 10 nM) [%] | cell viability (Calu-3 [12]; 100 nM) [%] | cell viability (Calu-3 [12]; 1000 nM) [%] | cell viability (Calu-3 [12]; 10000 nM) [%] | drug sensitivity score (Calu-3 [13]) | relative viability EC50 (U2OS [14]) [µM] | relative viability EC50 (Calu-3 [15]) [µM]
1 | NC(=O)c1cnc2[nH]ccc2c1N[C@@H]1[C@@H]2CC3C[C@H]1C[C@@](O)(C3)C2 | 101 | 101 | 90.5 | 104 | 113 | 96.4 | 97.1 | 96.5 | 93.1 | 67.2 | 95.4 | 97.6 | 99.6 | 107 | 101 | 113 | 112 | 107 | 109 | 47 | 0 | 2.6 | 0 | 2.3 | > 10 | > 10 | 3.87 | – | – | – | – | – | – | – | –
2 | O=c1[nH]c2ccc(Cl)cc2c(N[C@@H]2CN3CCC2CC3)c1-c1nc2ccccc2[nH]1 [CHIR-124] | 103 | 96.9 | 111 | 66.9 | 44 | 94.1 | 96.9 | 95.3 | 4.5 | 0.8 | 105 | 103 | 105 | 77.6 | 6.6 | 103 | 99.3 | 101 | 36.7 | 3.1 | 7 | 18 | 8.6 | 12.7 | 0.869 | 1.59 | 0.777 | 92.3 | 91.8 | 105 | 97.3 | 59.9 | 2.4 | 0.307 | –
3 | COC(=O)Nc1nc2cc([S+]([O-])c3ccccc3)ccc2[nH]1 (stereo not given) [oxfendazole] | 97 | 108 | 104 | 94.7 | 97.5 | 101 | 96.6 | 103 | 98.1 | 103 | 101 | 106 | 100 | 104 | 90.6 | 90.6 | 92.5 | 98.2 | 98.1 | 75.3 | 0 | 0 | 0 | 1.2 | > 10 | > 10 | > 10 | – | – | – | – | – | – | > 10 | –
4 | CC(C)(C#N)c1ccc(N2C(=O)OCc3cnc4ccc(-c5cnc6ccccc6c5)cc4c32)cc1 | 107 | 108 | 102 | 75 | 77.4 | – | – | – | – | – | 109 | 104 | 103 | 97.4 | 84.6 | 116 | 113 | 96.4 | 100 | 89.6 | 3.7 | – | 0.5 | 0 | > 10 | > 10 | > 10 | 110 | 97.3 | 110 | 68.3 | 41.5 | 7.1 | – | 0.939
5 | O=C(O)[C@H](Cc1c[nH]c2ccccc12)N1C(=O)c2ccccc2C1=O [RG108] | 96.8 | 100 | 91.9 | 106 | 102 | 105 | 105 | 97.1 | 105 | 96.2 | 97.4 | 99.1 | 97.6 | 92 | 101 | 118 | 109 | 114 | 99.8 | 109 | 0 | 0 | 0 | 0 | > 10 | > 10 | > 10 | – | – | – | – | – | – | > 10 | –
6 | CC(=O)N1CCC[C@H]1C(=O)N[C@@H](Cc1cnc[nH]1)C(=O)N[C@@H](CO)C(=O)N[C@@H](CS)C(=O)N[C@@H](CC(N)=O)C(N)=O [ATN-161] | 107 | 96.6 | 97.5 | 103 | 104 | – | – | – | – | – | 92.9 | 103 | 96.9 | 100 | 108 | 102 | 104 | 106 | 93.4 | 106 | 0 | – | 0 | 0 | > 10 | > 10 | > 10 | 102 | 102 | 101 | 107 | 97.2 | 0 | – | > 10
7 | O=C1COc2nccc(-c3ccccc3F)c2CN1Cc1cc(C(F)(F)F)cc(C(F)(F)F)c1 [GPBAR-A] | 102 | 102 | 106 | 102 | 86.9 | 97.7 | 103 | 100 | 104 | 91.2 | 101 | 99 | 98.9 | 101 | 102 | 108 | 91.3 | 103 | 94.4 | 100 | 0.1 | 0 | 0 | 0 | > 10 | > 10 | > 10 | 81.2 | 104 | 67.2 | 98.7 | 68.1 | 4.3 | > 10 | –
8 | COC(=O)c1ccccc1O [methyl-salicylate] | 103 | 99.4 | 101 | 81 | 101 | 98.4 | 97.2 | 101 | 101 | 102 | 110 | 104 | 102 | 102 | 97.3 | 112 | 101 | 102 | 90.9 | 102 | 0 | 0 | 0 | 0 | > 10 | > 10 | > 10 | – | – | – | – | – | – | > 10 | –
9 | NCCCC[C@H](NC(=O)[C@@H]1CCCN1C(=O)[C@@H]1CSSC[C@H](NC(=O)CNC(=O)CNC(=O)CN)C(=O)N[C@@H](Cc2ccc(O)cc2)C(=O)N[C@@H](Cc2ccccc2)C(=O)N[C@@H](CCC(N)=O)C(=O)N[C@@H](CC(N)=O)C(=O)N1)C(=O)NCC(N)=O [terlipressin] | 100 | 96.5 | 98 | 100 | 103 | – | – | – | – | – | 93.7 | 100 | 86.1 | 91.2 | 110 | 94.4 | 105 | 94.3 | 97.4 | 110 | 0 | – | 0 | 0 | > 10 | > 10 | > 10 | 93.9 | 92 | 102 | 95.8 | 96.4 | 0 | – | > 10
10 | Cn1cc(-c2[nH]c3cc(NC(=O)[C@H](N)C4CCCCC4)cc4c3c2C=NNC4=O)cn1 | 106 | 98.2 | 97.8 | 104 | 25.9 | 99.9 | 98.4 | 96.3 | 8.5 | 4.2 | 95.4 | 99.4 | 98.3 | 95.3 | 84.5 | 97.3 | 103 | 91.5 | 50.9 | 30.7 | 3.7 | 17.1 | 0.6 | 10.3 | 3.48 | > 10 | 0.493 | 109 | 98.7 | 114 | 66.7 | 51.2 | 6.5 | 0.324 | –
11 | CC1=C(C(=O)Nc2cc3cn[nH]c3cc2F)C(c2ccc(C(F)(F)F)cc2)CC(=O)N1 (stereo not given) | 83 | 89.6 | 91.3 | 99.1 | 102 | 94.9 | 97.9 | 92.3 | 96.8 | 86.3 | 102 | 104 | 101 | 82.5 | 84.4 | 100 | 103 | 104 | 95.6 | 92 | 0 | 0 | 2 | 0 | > 10 | > 10 | > 10 | – | – | – | – | – | – | > 10 | –
12 | CNc1ncnc2c1ncn2[C@@H]1O[C@H](CO)[C@@H](O)[C@H]1O [N6-methyladenosine] | 109 | 112 | 98.5 | 110 | 106 | – | – | – | – | – | 99.8 | 103 | 102 | 98.7 | 102 | 105 | 108 | 101 | 104 | 81.2 | 0 | – | 0 | 0.3 | > 10 | > 10 | > 10 | 110 | 89.5 | 102 | 92 | 86 | 0.7 | – | > 10
13 | C=CC(=O)Nc1cccc(Nc2nc(Nc3ccc(N4CCN(C(C)=O)CC4)cc3OC)ncc2C(F)(F)F)c1 [rociletinib] | 97.4 | 95.9 | 98.3 | 92.3 | 62.6 | 100 | 93.9 | 101 | 88 | 16.7 | 105 | 99.7 | 99.4 | 101 | 83 | 106 | 96.1 | 90.2 | 79.2 | 42.3 | 3.1 | 6.6 | 0.3 | 5.3 | – | > 10 | 1.38 | 95.6 | 88.6 | 88.3 | 57.8 | 16.6 | 10 | 2.03 | 0.822
14 | Cc1cc(Nc2ncnc3ccc(-c4ccc(CNCCS(C)(=O)=O)o4)cc23)ccc1Oc1ccn2ncnc2c1 [HER2-Inhibitor-1] | 102 | 88.5 | 94.8 | 88.4 | 52.7 | 98.2 | 95.2 | 100 | 91.9 | 87.9 | 105 | 106 | 105 | 93.7 | 94.2 | 98.4 | 102 | 95.8 | 89.1 | 88.8 | 4.2 | 0.4 | 0 | 0.4 | – | > 10 | > 10 | 122 | 88.4 | 66.1 | 45.5 | 30.5 | 15 | > 10 | 0.124
15 | COc1ccc(C(=O)c2c(C)n(CCN3CCOCC3)c3cc(I)ccc23)cc1 [AM-630] | 97.3 | 113 | 81.1 | 94.2 | 69.7 | 96.2 | 101 | 97.2 | 98.5 | 94.1 | 97.8 | 96.5 | 102 | 100 | 97 | 93.3 | 82.5 | 104 | 94.3 | 91.6 | 2.1 | 0 | 0 | 0 | – | > 10 | > 10 | 92.9 | 102 | 104 | 102 | 92.9 | 0 | > 10 | > 10
